The nature of series [1]: in vivo. To be noted: mouse. As to the method: Mice were sacrificed (n = 2) 0.25, 0.5, 1, 2, 4, 8 and 24 h after p.o. dosing. Blood was collected with heparinized syringe and plasma was separated. Three separate brain regions (cerebellum, front and back part of cerebrum) were isolated. The radioactivity in plasma and brain regions was measured by liquid scintillation counter. […] Plasma and whole brain homogenate samples were processed for metabolite profiling by HPLC with on-line radioisotope detector or liquid scintillation counter.

Series [2] concerns human DAAO. On the set-up: method as in PMID 28780732. The following applies: cited from earlier work.
For series [3], the system named is mouse DAAO. On the set-up: method as in PMID 28780732. The following applies: cited from earlier work.
For series [4], the system named is DAAO. On the set-up: method as in PMID 28780732. To be noted: pre-treatment; cited from earlier work.
Series [5] addresses DAAO (Homo sapiens, UniProt P14920). The experiment in a line: Inhibition of DAAO activity in vitro. Format: biochemical.
In series [6] the target is T1, breast cancer resistance protein (BCRP) (Homo sapiens, UniProt Q9UNQ0).
T1 sequence (Q9UNQ0 1-655): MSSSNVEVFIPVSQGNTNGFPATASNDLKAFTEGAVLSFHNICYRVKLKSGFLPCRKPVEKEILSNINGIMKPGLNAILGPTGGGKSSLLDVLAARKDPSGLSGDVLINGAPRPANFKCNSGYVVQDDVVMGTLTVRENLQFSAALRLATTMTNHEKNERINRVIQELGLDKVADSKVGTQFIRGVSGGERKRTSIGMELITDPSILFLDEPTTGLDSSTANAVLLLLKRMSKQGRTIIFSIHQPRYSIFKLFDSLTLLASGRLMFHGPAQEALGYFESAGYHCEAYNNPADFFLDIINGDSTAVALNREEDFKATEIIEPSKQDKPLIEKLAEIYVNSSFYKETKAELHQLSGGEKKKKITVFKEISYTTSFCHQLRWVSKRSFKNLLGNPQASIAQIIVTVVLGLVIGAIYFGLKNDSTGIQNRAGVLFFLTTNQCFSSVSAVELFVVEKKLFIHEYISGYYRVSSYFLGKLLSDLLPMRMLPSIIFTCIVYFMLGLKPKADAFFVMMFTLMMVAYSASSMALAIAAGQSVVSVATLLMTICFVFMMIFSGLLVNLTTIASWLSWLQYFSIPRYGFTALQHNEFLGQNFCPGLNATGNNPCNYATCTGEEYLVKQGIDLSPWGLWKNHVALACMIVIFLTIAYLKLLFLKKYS
Nature of the series: BCRP substrate assessment. Format: in vitro ADME.

Series [7] can be described thus: Translated human PK model (single species allometric scaling from rats). As to the method: (§1) The translational modeling steps from the mouse PK/TO/PD model to that for humans are as follows; 1) PK model was replaced by the human PK model predicted from rats with single species allometric scaling approach(6). […] The differential equations of translated human PK/TO/PD model are shown in Eq. S12-S14, 2 and 5. […] The model parameters used for simulation are summarized in Supplementary table 2.
(§2) C1 is calculated by A1/V1. […] Imax represents maximum inhibitory effect of TO on Kout.

The subject of series [8] is D-serine in cerebellum. To be noted: cited from earlier work.
Series [9] can be described thus: Free fraction of TAK-831 in human plasma. Format: in vitro ADME. To be noted: read-out: fp,human free fraction in plasma.
The nature of series [10]: Free fraction of TAK-831 in mouse plasma. The series is classed as in vitro ADME. To be noted: read-out: fp free fraction in mouse plasma.
Series [11] concerns the target T2, D-amino acid oxidase (DAAO) (Mus musculus, UniProt P18894).
T2 construct: from tissue
Nature of the series: Cerebellum target occupancy of DAAO measured by displacement of tracer PGM019260 (mechanistic binding kinetics model). The series is classed as in vivo, C57BL/6 J mice. As for the experimental part:
(§3) PGM019260 was formulated in 5% dimethyl sulfoxide and 95% v/v of 20% w/v 2-hydroxypropyl-β-cyclodextrin. […] After 2, 4, 6, 8, 10 and 24 h from oral administration, PGM019260 at 60 μg/kg was administered by intravenous route (i.v.) with a dose volume of 1 mL/kg (n = 4). Mice were sacrificed 20 min after tracer dosing. Blood was collected into heparin containing tubes and plasma was separated.
(§4) The grand mean value of tracer concentration in vehicle treatment group calculated from all the time points (2, 4, 6, 8, 10 and 24 h after vehicle treatment) was used as the baseline of tracer concentration across all the time points. […] The differential equations of PK/TO/PD model are shown below (Eqs. 1, 2 and 5). […] 4 and 6, respectively.1 dAp/dt=−CLp/Vp·Ap 2 dTO/dt=Kon·BRmax−TO·Cp−Koff·TO 3 Tracer concentration=BLtr·1−TO 4 In vivoKd=Koff/Kon×fp 5 dPD/dt=Kin−Kout·BRmax−Imax·TO 6 Kin=BL·Kout
(§5) The convergence criterion was three significant digits.

Series [12] concerns D-serine in cerebellum. The experiment in a line: Translated human PD model (D-serine in cerebellum). To be noted: taken from the mouse model. As to the method: as §1, §2
Series [13] concerns cerebellar-based associative learning. The following applies: mice; cited from earlier work.
The subject of series [14] is novel object recognition. To be noted: cited from earlier work.
The test system of series [15] is social interaction (model of negative symptoms). To be noted: Balb/c mice; cited from earlier work.
In series [16] the target is P-glycoprotein (P-gp) (Homo sapiens, UniProt P08183). The experiment in a line: P-glycoprotein substrate assessment. The series is classed as in vitro ADME.
In series [17] the test system is DAAO. The following applies: human, taken from the mouse model. As for the experimental part:
as §1, §2

Series [18] can be described thus: Plasma PK of TAK-831 after single oral administration in mice (target occupancy study, 1-compartment model). The series is classed as in vivo, C57BL/6 J mice. As for the experimental part: as §3, §4, §5

pKd: −log10 of the molar value.

T2 sequence (P18894 whole entry): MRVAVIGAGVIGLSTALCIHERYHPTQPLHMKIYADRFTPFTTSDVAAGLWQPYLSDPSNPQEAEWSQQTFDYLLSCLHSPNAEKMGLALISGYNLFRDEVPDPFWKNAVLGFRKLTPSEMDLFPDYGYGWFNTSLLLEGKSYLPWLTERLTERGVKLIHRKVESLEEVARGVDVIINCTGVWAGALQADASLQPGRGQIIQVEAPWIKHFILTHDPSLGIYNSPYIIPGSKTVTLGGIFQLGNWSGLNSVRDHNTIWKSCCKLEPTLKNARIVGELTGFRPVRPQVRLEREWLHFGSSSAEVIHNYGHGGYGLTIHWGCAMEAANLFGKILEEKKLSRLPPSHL
Sequence of DAAO (Homo sapiens, UniProt P14920) (P14920 whole entry, species assumed): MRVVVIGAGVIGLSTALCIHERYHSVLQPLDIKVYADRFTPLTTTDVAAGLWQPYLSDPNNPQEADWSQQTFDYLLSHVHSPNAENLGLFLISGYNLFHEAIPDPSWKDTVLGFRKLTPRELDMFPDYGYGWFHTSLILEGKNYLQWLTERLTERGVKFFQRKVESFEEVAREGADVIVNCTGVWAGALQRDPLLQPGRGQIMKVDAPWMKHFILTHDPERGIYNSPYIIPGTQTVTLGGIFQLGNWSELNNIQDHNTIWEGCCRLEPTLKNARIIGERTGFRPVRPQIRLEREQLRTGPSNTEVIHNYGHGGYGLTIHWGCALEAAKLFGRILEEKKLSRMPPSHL
Sequence of P-glycoprotein (P-gp) (P08183 whole entry): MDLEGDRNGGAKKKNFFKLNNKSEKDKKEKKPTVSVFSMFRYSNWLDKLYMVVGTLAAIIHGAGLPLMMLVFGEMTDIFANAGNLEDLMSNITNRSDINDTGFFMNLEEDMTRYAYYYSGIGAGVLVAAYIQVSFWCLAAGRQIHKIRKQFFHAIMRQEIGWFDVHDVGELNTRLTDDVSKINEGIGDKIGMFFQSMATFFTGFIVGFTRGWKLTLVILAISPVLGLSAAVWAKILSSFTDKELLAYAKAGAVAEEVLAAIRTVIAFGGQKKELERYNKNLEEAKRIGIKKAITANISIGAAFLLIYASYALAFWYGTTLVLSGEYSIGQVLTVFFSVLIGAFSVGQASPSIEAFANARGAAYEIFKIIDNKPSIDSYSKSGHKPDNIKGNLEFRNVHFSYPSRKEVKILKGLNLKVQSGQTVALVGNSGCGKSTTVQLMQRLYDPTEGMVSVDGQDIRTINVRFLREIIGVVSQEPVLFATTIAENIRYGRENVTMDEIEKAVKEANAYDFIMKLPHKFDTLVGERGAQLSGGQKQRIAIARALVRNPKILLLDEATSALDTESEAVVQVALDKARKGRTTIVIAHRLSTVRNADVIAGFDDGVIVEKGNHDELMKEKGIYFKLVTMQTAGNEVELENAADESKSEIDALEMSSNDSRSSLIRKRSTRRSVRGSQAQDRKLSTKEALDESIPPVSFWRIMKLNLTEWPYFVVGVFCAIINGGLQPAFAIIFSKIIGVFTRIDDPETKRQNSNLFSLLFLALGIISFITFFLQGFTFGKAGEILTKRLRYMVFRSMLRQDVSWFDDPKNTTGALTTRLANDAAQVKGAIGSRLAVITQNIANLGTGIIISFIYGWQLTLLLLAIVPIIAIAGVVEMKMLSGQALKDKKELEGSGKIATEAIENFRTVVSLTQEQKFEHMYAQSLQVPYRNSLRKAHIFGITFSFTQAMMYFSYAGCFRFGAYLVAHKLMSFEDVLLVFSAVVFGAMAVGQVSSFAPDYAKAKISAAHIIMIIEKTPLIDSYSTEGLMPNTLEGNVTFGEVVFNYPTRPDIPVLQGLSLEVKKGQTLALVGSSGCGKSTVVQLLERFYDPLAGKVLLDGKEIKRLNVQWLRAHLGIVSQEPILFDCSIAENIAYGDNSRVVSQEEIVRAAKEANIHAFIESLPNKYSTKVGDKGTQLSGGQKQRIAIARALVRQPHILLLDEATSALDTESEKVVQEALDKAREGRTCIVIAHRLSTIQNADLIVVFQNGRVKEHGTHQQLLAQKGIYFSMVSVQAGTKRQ

On to `O=c1[nH]nc(CCc2ccc([14C](F)(F)F)cc2)cc1O` [[^14C]TAK-831], for which, in series [1], the “dose dependency of plasma exposure of radioactivity” value is recorded as “increased almost dose-proportionally”.
Regarding `COc1ccc(CSc2c[nH]c(=O)c(O)c2)cn1` [PGM019260], in series [2], the “DAAO inhibition in human enzyme in vitro” value was “highly potent DAAO inhibition”. The “DAAO inhibition in mouse enzyme in vitro” value in series [3] is reported as “highly potent DAAO inhibition”.
On to `O=C([O-])c1ccccc1.[Na+]` [sodium benzoate], for which the “displacement of PGM019260 in the mouse cerebellum” value in series [4] is “dose dependent displacement”.
Broadly, the pKd is the Kd on a negative log10 scale, so that one unit is a factor of ten. For orientation: koff means the first-order rate constant of dissociation. The term Tmax denotes the time from dosing to the highest level. For `O=c1[nH]nc(CCc2ccc(C(F)(F)F)cc2)cc1O` [TAK-831, 4-hydroxy-6-{2-[4-(trifluoromethyl)phenyl]ethyl}pyridazin-3(2H)-one], the “in vitro IC50 values on enzymatic activity, mice vs humans” value in [5] (comparison between mouse and human enzyme) was “comparable between mice and humans”. The IC50 in series [5] (read-out: 50% inhibitory concentration (IC50) of DAAO activity in vitro (converted)) was 6.33 nM. The “substrate of breast cancer resistance protein (BCRP)” value in [6] is “neither a substrate”. In series [7], the “Ka absorption rate constant” value worked out at 0.218 h⁻¹. Besides, the “D-serine levels in the cerebellum of normal mice” value in [8] is given as “increase D-serine levels”. Moreover, the fraction unbound in series [9] was determined as 0.0067; in series [10], 0.077; in series [1] (C57BL/6 J) it was 0.425. Besides, the pKd in series [11] is 9.09. Further, in series [11] (in vivo Kd vs in vitro IC50), the “fold by which in vivo Kd is lower than in vitro IC50” value is “about 8 fold”. The “Kon association rate constant” value in series [11] (mice cerebellum, against total plasma concentration, model estimate) is listed as 0.0372 mL/ng/h. For the same compound, the “BRmax maximum binding ratio” value is listed as 0.987 in series [11] (mice cerebellum, model estimate) and 0.987 in series [17]. The “accumulation of PK or TO after once daily multiple doses (empirical, separate studies)” value in series [11] (mice, once daily multiple doses, data not shown) is reported as “no accumulation was observed”. Besides, the “TAK-831 dosage at which maximum decline of tracer concentration was observed” value in series [11] (mice, single p.o., tracer PGM019260 in cerebellum) is recorded as at least 3 mg/kg. Besides, the dissociation rate constant (koff) in series [11] (mouse, read-out: Koff dissociation rate constant) was 3.14e-05 s⁻¹. In addition, the “Imax maximum inhibitory effect” value in series [12] is recorded as 0.877. In addition, in [13], the “acquisition of the conditioned response” value was “improvement in the acquisition of the conditioned response”. Further, the scopolamine induced deficit result in [13] is given as “reversing the scopolamine induced deficit”. The “dose at which efficacy was observed” value in [14] (acute oral dose in mice) is recorded as at least 0.3 mg/kg. For the same compound, in [14] (range of acute and chronic doses in mice), the “identification of the novel object” value is given as “able to identify the novel object”. Moreover, in series [15], the “efficacy in social interaction model” value is listed as “efficacious”. The “substrate of P-glycoprotein (P-gp)” value in [16] is “neither a substrate”. Further, the Kp in [1] (C57BL/6 J) is 0.181. Also, the “time by which equilibrium across BBB was reached” value in series [1] (C57BL/6 J) is listed as at most 0.25 h. The compound also displayed a Kp uu in [1] of 1. Also, the CL/F in series [18] (C57BL/6 J, mouse, plasma, po, single p.o. 0.3-10 mg/kg, model estimate, read-out: CLp oral clearance (converted)) is 85.7 mL/min/kg. In addition, the time of peak concentration (Tmax) in series [18] (C57BL/6 J, mouse, plasma, po, single p.o., first sampling at 2 h) is at most 2 h. The “dose dependency of plasma exposure” value in [18] (p.o. dose range 0.3 to 10 mg/kg) is recorded as “increased almost dose-proportionally”. Moreover, the “Vp apparent volume of distribution” value in series [18] (single p.o. 0.3-10 mg/kg, model estimate) is listed as 35.7 L/kg.

These data come from publication PMC7478952 (Pharmaceutical Research, 2020).
